One test has as its target T1, full-length human YAP1 (Homo sapiens, UniProt P46937).
T1 construct: purified recombinant HA-tagged full-length human YAP1; made in house
The test is described as follows: Inhibitor-coupled bead binding of recombinant HA-tagged YAP. The conditions noted are these: immunoblot of bound HA-YAP. How it is done:
FIGS. 1A-G show the identification of a YAP1-TEAD1 binding interface inhibitor. […] The Gal4 DBD was fused to residues 50-171 of human YAP1 and the Gal4 AD was fused to residues 194-411 of human TEAD1. These fusions were expressed in yeast containing reporters harboring Gal4 upstream activating sequences (UAS). […] Yeast expressing either p53-DBD and SV40 large T antigen-AD fusions or YAP1-DBD and TEAD1-AD fusions were plated on selective media. Compounds were pinned onto the plate surfaces by robotic transfer and subsequently examined for halo formation (indicated by red circles). […] Pull-down products were analyzed by SDS-PAGE and silver staining. […] Raw binding sensorgrams obtained at each concentration were fitted to a 1:1 binding model and Kon, Koff and KD were calculated by simultaneous non-linear regression analyses.
Protein and mRNA analyses, immunoprecipitation, in vitro bead-coupled inhibitor binding assays and HPLC analyses. […] Antigen-antibody complexes were detected using appropriate horseradish peroxidase-conjugated secondary antibodies (GE Healthcare) and enhanced chemiluminescence (Amersham ECL Prime). […] For quantitative RT-PCR, extraction of RNA was performed using Trizol® (Life Technologies). Total RNA was then quantified and integrity assessed using an Agilent 2100 Bioanalyzer (Agilent Technology). […]

Another test concerns the target T2, YAP-TEAD interaction (Homo sapiens, UniProt P46937).
T2 construct: expressed in transfected cells; host or cells: LN229
Kind of test: Co-immunoprecipitation of myc-TEAD with HA-YAP from treated LN229 cells. The class given is cell-based. The conditions noted are these: LN229 cells, 24 h. As to the method:
FIGS. 1A-G show the identification of a YAP1-TEAD1 binding interface inhibitor. […] The Gal4 DBD was fused to residues 50-171 of human YAP1 and the Gal4 AD was fused to residues 194-411 of human TEAD1. These fusions were expressed in yeast containing reporters harboring Gal4 upstream activating sequences (UAS). […] Yeast expressing either p53-DBD and SV40 large T antigen-AD fusions or YAP1-DBD and TEAD1-AD fusions were plated on selective media. Compounds were pinned onto the plate surfaces by robotic transfer and subsequently examined for halo formation (indicated by red circles). Compounds inhibiting YAP1-TEAD1 mediated growth on selective media while having no effect on p53-T antigen mediated yeast growth were considered specific. Compounds which blocked the growth of both strains were considered nonspecific and were classified as having general antifungal properties. […] His-tagged YAP (amino acids 50-171 of Accession No. NP_006097) was used in a GST pull-down assay using GST-TEAD (amino acids 194-411 of Accession No. NP_068780) immobilized on glutathione resin. Pull-down products were analyzed by SDS-PAGE and silver staining. […] Cells treated with antimycin A are shown as a negative control. […] Raw binding sensorgrams obtained at each concentration were fitted to a 1:1 binding model and Kon, Koff and KD were calculated by simultaneous non-linear regression analyses.
Protein and mRNA analyses, immunoprecipitation, in vitro bead-coupled inhibitor binding assays and HPLC analyses. […] Antigen-antibody complexes were detected using appropriate horseradish peroxidase-conjugated secondary antibodies (GE Healthcare) and enhanced chemiluminescence (Amersham ECL Prime). […] For quantitative RT-PCR, extraction of RNA was performed using Trizol® (Life Technologies). Total RNA was then quantified and integrity assessed using an Agilent 2100 Bioanalyzer (Agilent Technology). […] SYBR® Green quantitative PCR (Millipore Sigma) was performed in triplicate in 96-well optical plates on an ABI Prism 7000 Sequence Detection System (Life Technologies) according to the manufacturer's instructions. […]

T2 sequence (P46937 whole entry): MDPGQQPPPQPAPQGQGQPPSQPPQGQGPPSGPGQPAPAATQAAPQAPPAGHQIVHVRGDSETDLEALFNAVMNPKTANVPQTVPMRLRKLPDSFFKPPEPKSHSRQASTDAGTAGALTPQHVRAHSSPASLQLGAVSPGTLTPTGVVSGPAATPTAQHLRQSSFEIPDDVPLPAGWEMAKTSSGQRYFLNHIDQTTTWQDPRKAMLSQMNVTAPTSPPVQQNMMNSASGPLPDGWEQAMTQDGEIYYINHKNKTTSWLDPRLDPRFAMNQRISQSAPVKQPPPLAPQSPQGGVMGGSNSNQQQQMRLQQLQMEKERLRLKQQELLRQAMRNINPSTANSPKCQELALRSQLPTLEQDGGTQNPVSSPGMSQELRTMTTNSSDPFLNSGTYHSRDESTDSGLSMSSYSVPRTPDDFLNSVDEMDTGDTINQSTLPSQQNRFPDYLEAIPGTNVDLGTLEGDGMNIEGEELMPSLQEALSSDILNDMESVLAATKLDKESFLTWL
T1 sequence (P46937 whole entry): as above

On to `COc1ccc(CN2C(=O)c3ccccc3C2=O)c(OC)c1` [IRES-J007, reference compound], for which, at full-length human YAP1, the “Binding of YAP to compound-coupled beads” value is listed as “no significant binding”.

Regarding verteporfin, the “Cell treatment concentration required for observable blockade of the interaction” value on YAP-TEAD interaction turned out to be 4 µM. Moreover, the “Inhibition of HA-YAP/myc-TEAD interaction at equimolar concentrations” value on YAP-TEAD interaction (equimolar to NSC682769) was “ineffective”.

These data come from patent US20240108634A1, “COMPOSITIONS AND METHODS FOR INHIBITING YAP” (The United States Government as represented by the …, priority 2021, published 2024).
